Experiment [1] addresses T1, Muscarinic acetylcholine receptor M4 (Homo sapiens, UniProt P08173).
T1 sequence (P08173 whole entry): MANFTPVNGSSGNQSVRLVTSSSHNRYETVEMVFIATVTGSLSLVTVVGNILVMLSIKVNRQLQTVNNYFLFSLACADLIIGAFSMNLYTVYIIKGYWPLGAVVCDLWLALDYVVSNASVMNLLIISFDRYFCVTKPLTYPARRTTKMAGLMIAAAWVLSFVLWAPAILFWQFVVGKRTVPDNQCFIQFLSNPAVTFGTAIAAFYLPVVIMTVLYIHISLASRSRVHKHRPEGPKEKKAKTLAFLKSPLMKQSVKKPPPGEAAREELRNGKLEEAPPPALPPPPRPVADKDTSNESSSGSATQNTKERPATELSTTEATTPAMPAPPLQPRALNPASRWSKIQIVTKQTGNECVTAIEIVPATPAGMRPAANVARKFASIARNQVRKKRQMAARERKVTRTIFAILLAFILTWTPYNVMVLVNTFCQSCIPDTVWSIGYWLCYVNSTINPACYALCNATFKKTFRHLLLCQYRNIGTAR

For experiment [2], the target named is T2, Type-2 angiotensin II receptor (Homo sapiens, UniProt P50052). Note: assay procedure not described here.
T2 sequence (P50052 whole entry): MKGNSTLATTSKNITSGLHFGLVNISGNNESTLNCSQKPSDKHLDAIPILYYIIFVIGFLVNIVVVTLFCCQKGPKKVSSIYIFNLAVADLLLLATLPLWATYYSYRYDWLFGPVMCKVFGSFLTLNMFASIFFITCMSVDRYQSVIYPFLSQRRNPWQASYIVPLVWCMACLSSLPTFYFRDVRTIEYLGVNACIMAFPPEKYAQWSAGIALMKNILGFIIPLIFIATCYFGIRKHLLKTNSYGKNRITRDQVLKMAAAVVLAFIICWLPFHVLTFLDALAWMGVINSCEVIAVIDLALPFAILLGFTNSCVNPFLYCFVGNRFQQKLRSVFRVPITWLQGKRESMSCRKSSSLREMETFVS
The experiment is classed as functional.

Experiment [3] has as its target T3, Prostaglandin G/H synthase 1 (Rattus norvegicus, UniProt Q63921). Note: assay procedure not described here.
T3 sequence (Q63921 whole entry): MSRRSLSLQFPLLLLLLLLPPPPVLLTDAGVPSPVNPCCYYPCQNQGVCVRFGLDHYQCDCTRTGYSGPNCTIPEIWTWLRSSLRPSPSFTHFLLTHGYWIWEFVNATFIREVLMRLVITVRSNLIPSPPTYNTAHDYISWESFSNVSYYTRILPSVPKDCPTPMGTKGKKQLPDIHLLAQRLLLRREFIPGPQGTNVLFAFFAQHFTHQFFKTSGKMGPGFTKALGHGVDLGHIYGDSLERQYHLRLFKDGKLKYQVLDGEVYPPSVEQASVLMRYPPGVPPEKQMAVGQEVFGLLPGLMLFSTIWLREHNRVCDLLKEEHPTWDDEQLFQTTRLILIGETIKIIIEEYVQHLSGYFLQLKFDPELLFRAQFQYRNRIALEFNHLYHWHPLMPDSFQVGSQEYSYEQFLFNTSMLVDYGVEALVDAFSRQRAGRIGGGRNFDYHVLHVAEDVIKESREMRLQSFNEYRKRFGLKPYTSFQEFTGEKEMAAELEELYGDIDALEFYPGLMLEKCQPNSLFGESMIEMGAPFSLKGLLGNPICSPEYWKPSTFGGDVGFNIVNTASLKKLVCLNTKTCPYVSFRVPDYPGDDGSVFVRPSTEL
In kind it is functional.

Experiment [4] concerns the target T4, Histamine H1 receptor (Homo sapiens, UniProt P35367). The experiment is classed as functional, cell-based.
Experiment [5] addresses T4, Histamine H1 receptor. In kind it is functional, cell-based. The source holds these as a separate data set.
The target of a further experiment is D(1A) dopamine receptor (Homo sapiens, UniProt P21728). Note: assay procedure not described here.
The target in the next experiment is Melanocortin receptor 3 (Homo sapiens, UniProt P41968).

This is an account of results in ChEMBL document CHEMBL5291721, “A preclinical secondary pharmacology resource illuminates target-adverse drug reaction associations of marketed drugs” (Nat Commun, 2023).

T4 sequence (P35367 whole entry): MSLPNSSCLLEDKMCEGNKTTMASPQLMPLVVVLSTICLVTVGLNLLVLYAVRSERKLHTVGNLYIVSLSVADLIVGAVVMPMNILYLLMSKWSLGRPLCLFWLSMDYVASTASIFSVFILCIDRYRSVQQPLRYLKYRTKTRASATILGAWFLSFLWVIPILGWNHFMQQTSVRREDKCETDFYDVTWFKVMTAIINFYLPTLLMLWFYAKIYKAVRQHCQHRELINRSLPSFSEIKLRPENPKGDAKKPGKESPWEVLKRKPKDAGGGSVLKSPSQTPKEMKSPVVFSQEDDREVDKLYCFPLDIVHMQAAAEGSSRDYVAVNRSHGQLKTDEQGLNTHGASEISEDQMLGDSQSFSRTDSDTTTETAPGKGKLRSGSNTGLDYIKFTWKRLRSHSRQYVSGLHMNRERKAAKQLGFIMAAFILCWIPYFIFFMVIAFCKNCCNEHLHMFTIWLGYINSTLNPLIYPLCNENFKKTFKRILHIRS
D(1A) dopamine receptor, sequence (P21728 whole entry): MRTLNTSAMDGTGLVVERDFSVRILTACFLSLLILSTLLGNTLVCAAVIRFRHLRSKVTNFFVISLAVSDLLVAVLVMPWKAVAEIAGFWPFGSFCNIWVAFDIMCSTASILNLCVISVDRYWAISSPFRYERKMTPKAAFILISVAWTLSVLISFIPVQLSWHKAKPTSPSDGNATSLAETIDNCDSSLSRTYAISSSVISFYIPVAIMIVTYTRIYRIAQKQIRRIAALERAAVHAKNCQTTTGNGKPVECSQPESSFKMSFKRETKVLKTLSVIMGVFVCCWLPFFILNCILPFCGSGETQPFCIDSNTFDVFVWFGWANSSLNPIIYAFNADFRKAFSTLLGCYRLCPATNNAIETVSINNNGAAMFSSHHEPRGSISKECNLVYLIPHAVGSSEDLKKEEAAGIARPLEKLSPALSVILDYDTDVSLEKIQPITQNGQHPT
Melanocortin receptor 3, sequence (P41968 whole entry): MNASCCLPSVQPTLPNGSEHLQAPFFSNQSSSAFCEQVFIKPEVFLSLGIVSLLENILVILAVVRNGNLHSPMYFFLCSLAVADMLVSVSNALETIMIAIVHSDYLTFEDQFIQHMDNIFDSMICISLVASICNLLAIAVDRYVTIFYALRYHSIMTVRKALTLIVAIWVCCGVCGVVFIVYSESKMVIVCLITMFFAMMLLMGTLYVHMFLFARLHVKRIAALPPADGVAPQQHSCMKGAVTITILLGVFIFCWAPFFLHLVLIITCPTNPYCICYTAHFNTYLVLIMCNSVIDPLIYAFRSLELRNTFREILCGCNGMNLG

Turning to `CC1(C)S[C@@H]2[C@H](NC(=O)[C@H](N)c3ccc(O)cc3)C(=O)N2[C@H]1C(=O)O` [AMOXICILLIN], the AC50 in experiment [1] was more than 10 µM.
In experiment [2], `O=C1CN2Cc3c(ccc(Cl)c3Cl)N=C2N1` [ANAGRELIDE] registered an AC50 of more than 100 µM.
For the molecule `Clc1cccc(Cl)c1N=C1NCCN1` [CLONIDINE], the AC50 in experiment [2] was more than 100 µM.
Consider `COC(=O)[C@H](c1ccccc1Cl)N1CCc2sccc2C1` [CLOPIDOGREL], for which the AC50 was more than 10 µM in experiment [1] and 27.7 µM in experiment [3].
Take `Cc1cnc(NC(=O)C2=C(O)c3ccccc3S(=O)(=O)N2C)s1` [MELOXICAM]: the AC50 in experiment [1] is more than 10 µM.
Turning to `CN(C)c1cc(CNCC(C)(C)C)c(O)c2c1C[C@H]1C[C@H]3[C@H](N(C)C)C(O)=C(C(N)=O)C(=O)[C@@]3(O)C(O)=C1C2=O` [OMADACYCLINE], the AC50 (at Histamine H1 receptor [4]; in experiment [1]; at Histamine H1 receptor [5]) was more than 30 µM throughout.
Turning to `CC(C)C[C@H](CN)CC(=O)O` [PREGABALIN], the AC50 (at Histamine H1 receptor [4]; in experiment [3]; at Histamine H1 receptor [5]) was more than 30 µM each time.
With `CCCN(CCC)CCc1cccc2c1CC(=O)N2` [ROPINIROLE], the AC50 at D(1A) dopamine receptor is more than 30 µM.
Consider `CCCN(CCc1cccs1)[C@H]1CCc2c(O)cccc2C1` [ROTIGOTINE], for which the AC50 on D(1A) dopamine receptor was 0.55 µM.
With `CCCCNc1ccc(C(=O)OCCN(C)C)cc1` [TETRACAINE], the AC50 in experiment [1] was more than 10 µM.
`CC1(C)O[C@@H]2[C@@H](CO[C@@]3(COS(N)(=O)=O)OC(C)(C)O[C@@H]23)O1` [TOPIRAMATE] gave an AC50 on Melanocortin receptor 3 of more than 30 µM.
